According to paper PMC8509398, “Proteolytic Cleavage of Bioactive Peptides and Protease-Activated Receptors in Acute and Post-Colitis” (International Journal of Molecular Sciences, 2021):
Residues, ends and D or L forms follow the SMILES beside them.

Legend:
[1] = Cleavage of peptides by colonic tissue lysates from TNBS-induced colitis rat model, MALDI-TOF/TOF; conditions: 10 µM peptide, 20 µg/mL protein, 37 °C; for Number of colonic samples in which the TL-sequence unmasking cleavage was observed, acute colitis: acute colitis lysates; for Number of colonic samples in which the TL-sequence unmasking cleavage was observed, post-colitis: post-colitis lysates; for Processing by colonic samples, in words (comparison of control, post-colitis and acute colitis): rat colonic lysates, up to 30 min, n = 8 per group
Protocol: Adult male Sprague–Dawley rats (200–225 g; Charles River, Wilmington, MA, USA) were used in a previously described TNBS-induced acute and post-inflammatory model. Rats were housed at constant room temperature (22 ± 2 °C) and humidity (60%) with two rats per cage, unlimited access to water and food and on a 12 h–12 h light/dark cycle.
After an overnight fast, TNBS colitis was induced using a TNBS-enema (4 mg TNBS; Sigma-Aldrich, 50% ethanol) as described previously. Rats were anesthetized with a mixture of ketamine (35 mg/kg i.p.; Ketalar®, Pfizer, New York City, NY, USA) and xylazine (5 mg/kg i.p.; Rompun®, Bayer, Leverkusen, Germany), and the TNBS-enema or 0.9% saline was administered intrarectally using a flexible catheter (18 G, length 4.5 cm) to colitis and control rats, respectively. Animals were kept in a tail-up position for 1 min and were then allowed to recover in their cages with free access to water and food. […] For the post-colitis group (n = 8), a colonoscopy was performed starting from day 10 and repeated every 4 days until complete mucosal healing was observed. The rats were then sacrificed as well and colonic samples were taken.
Colonic lysates were prepared for studying their effects on cleavage patterns of added peptides with a MALDI-TOF/TOF assay. After sacrifice, a sample of approximately 50 mg of distal colon was taken from each rat. The colonic samples were immediately rinsed with Krebs solution, snap-frozen and stored at −80 °C until further processing. Sample preparation started with crushing the colonic samples on dry ice. Liquid nitrogen was used to prevent the loss of enzymatic activity due to temperature increases and the colon powders were stored at −80 °C for further experiments. […] After centrifugation, the supernatants were collected and used immediately to prepare the reaction mixtures, measure proteolytic activities with fluorogenic substrates and determine the protein content with a Bradford assay.
Colonic lysate was added to a peptide of interest to obtain the reaction mixtures with the colonic samples. Lysate and peptide were diluted so each mixture contained 10 µM peptide of interest and 20 µg/mL protein originating from the colonic tissue. These peptide and protein concentrations were based on research from Loew et al. and O’ Donoghue et al.. The mixtures were incubated at 37 °C for several incubation periods between 5 and 30 min. Afterward, the fragmentation reaction was stopped by adding trifluoroacetic acid (TFA; Alfa Aesar™, ThermoFisher, Waltham, MA, USA) to a final concentration of 2% and standard peptide (substance P, bradykinin or PAR3-based peptide) was added in a final concentration of 10 µM. Standard peptides were selected based on the mass of the peptides of interest. For each sample/peptide combination, a starting point was included as well. Here, TFA was added immediately after mixing the reaction constituents. Samples were stored at −80 °C for further MALDI-TOF/TOF experiments.
(§1) The TFA mixtures were thawed on ice and desalted using C18 zip-tips (Merck Millipore®, Burlington, MA, USA) with a capacity of 5 µg protein. Retained peptide fragments were eluted directly on the MALDI target plate. Next, 0.5 µL of a 2.5 mg/mL α-cyano-4-hydroxycinnamic acid (Sigma-Aldrich) matrix solution (in 70% acetonitrile, 0.1% TFA) was spotted on top of the sample. A 6-Peptide mixture Kit (AB Sciex, Framingham, MA, USA) containing bradykinin (2–9), angiotensin I, glu1-fibrinopeptide, ACTH (1–17), ACTH (18–39) and ACTH (7–38) was diluted with matrix and spotted on the plate as well.
(§2) MS and MS/MS data for peptide fragment identification were obtained with a MALDI-TOF/TOF instrument (4800 MALDI TOF/TOF™, Applied Biosystems, Waltham, MA, USA) and instrument parameters were set using 4000 Series Explorer™ software. MS spectra were recorded in positive reflector mode in a mass range from 500 to 4000 Da and laser intensity of 4500–4800 Hz.

trypsin-2 = trypsin-2 (Homo sapiens, UniProt P07478); test: Cleavage of peptides by purified trypsin-2, MALDI-TOF/TOF; conditions: 25 nM protease, 10 µM peptide; for Incubation time at which the first cleavage or decrease of the full-length peptide was observed, trypsin-2: 37 °C, time points 2, 5, 10, 30 min; for TL disarming (D), Trypsin-2 / TL unmasking (U), Trypsin-2: PAR-based peptides
trypsin-2, sequence (P07478 24-247): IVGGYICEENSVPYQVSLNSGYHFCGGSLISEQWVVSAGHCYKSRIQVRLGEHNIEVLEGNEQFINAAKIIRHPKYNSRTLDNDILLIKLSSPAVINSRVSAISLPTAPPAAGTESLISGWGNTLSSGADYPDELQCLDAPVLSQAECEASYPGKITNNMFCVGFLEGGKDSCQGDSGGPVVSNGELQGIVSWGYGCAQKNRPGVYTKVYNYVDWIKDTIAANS
From the text: Trypsin-like proteases included in the experiments are trypsin-1, -2 and -3, tryptase (Enzo LifeSciences), thrombin (Sigma-Aldrich) and cathepsin G (Sigma-Aldrich). Trypsin-1, -2 and -3 were produced as described by Koistinen et al. and Wu et al.. Two elastase-like enzymes, neutrophil elastase (Enzo LifeSciences, Farmingdale, NY, USA) and pancreatic elastase I (Sigma-Aldrich) were included as well. All enzymes were from human origin except for pancreatic elastase from porcine pancreas.
Reaction mixtures with purified enzymes were compiled in an identical way. Each mixture contained an equimolar concentration of protease (25 nM based on) and 10 µM peptide of interest and was incubated for 2, 5, 10 and 30 min at 37 °C. Substance P was added as the standard peptide except for the reaction mixtures with substance P or bradykinin as the peptide of interest, where angiotensin II (Bachem) was added.
as §1
as §2, with “Hz. The spectra were calibrated using the calibration mixture mentioned above to a mass tolerance of 0.1 Da. MS/MS spectra were recorded with high-energy collision-induced dissociation and the laser intensity was increased by 10%. Precursor mass m/z 1570.65 (Glu1-Fibrinopeptide from the calibration mixture) was used to calibrate the MS/MS spectra to a mass tolerance of 0.1 Da.” for “Hz.”
MS and MS/MS spectra were processed using DataExplorer™ software and the obtained output files were uploaded in the MS-PEP data analyzer (https://bioit.shinyapps.io/PARs/ accessed 10/08/2020) for peptide fragment identification. Identified fragments were confirmed using the MS/MS spectra and mMass 5.5.0 by Martin Strohalm. The relative intensities of the fragments were calculated as the ratio of the intensity of the peak of interest to the intensity of the peak of the standard peptide.

[2] = n = 8, MALDI-TOF/TOF, PAR1-based after 30 min
[3] = rat colonic lysate, 5-30 min, stopped with 2% TFA, MALDI-TOF/TOF relative intensity vs standard peptide, n = 8 animals

| Number of colonic samples in which the TL-sequence unmasking cleavage was observed, acute colitis [1, 2] | Number of colonic samples in which the TL-sequence unmasking cleavage was observed, control ([1]; control lysates, n = 8, MALDI-TOF/TOF, PAR1-based after 30 min) | Number of colonic samples in which the TL-sequence unmasking cleavage was observed, post-colitis [1, 2] | Processing by colonic samples, in words (comparison of control, post-colitis and acute colitis) ([1]; MALDI-TOF/TOF) | Incubation time at which the first cleavage or decrease of the full-length peptide was observed, trypsin-2 (trypsin-2) [min] | TL disarming (D), Trypsin-2 (trypsin-2; 37 °C, 2, 5, 10 and 30 min) | TL unmasking (U), Trypsin-2 (trypsin-2; 37 °C, 2, 5, 10 and 30 min) | Incubation time after which processing was significant (decrease of full-length peptide or increase of fragment), acute colitis samples ([1]; rat colonic lysate, acute TNBS colitis, 5-30 min, stopped with 2% TFA, MALDI-TOF/TOF relative intensity vs standard peptide, n = 8 animals) [min] | Structure (SMILES) | Incubation time after which processing was significant (decrease of full-length peptide or increase of fragment), post-colitis samples [1, 3] | Efficiency of the first cleavage in the peptide, Trypsin-2 (trypsin-2; 37 °C, 2, 5, 10 and 30 min, stopped with 2% TFA) | Incubation time after which processing was significant (decrease of full-length peptide or increase of fragment), control samples ([1]; rat colonic lysate, control, 5-30 min, stopped with 2% TFA, MALDI-TOF/TOF relative intensity vs standard peptide, n = 8 animals) |
| --- | --- | --- | --- | --- | --- | --- | --- | --- | --- | --- | --- |
| four out of eight | two out of eight | three out of eight | no differences | 2 | − | +++ (ultrafast processing within 2 min) |  | CC[C@H](C)[C@H](NC(=O)[C@H](CC(C)C)NC(=O)[C@H](CO)NC(=O)[C@H](CCCNC(=N)N)NC(=O)CNC(=O)[C@H](CCCCN)NC(=O)[C@H](CO)NC(=O)[C@H](CO)NC(=O)[C@H](CCCNC(=N)N)NC(=O)[C@H](CC(N)=O)NC(=O)[C@@H](NC(=O)CNC(=O)[C@H](CCC(N)=O)NC(=O)[C@@H](NC(=O)[C@@H](N)[C@@H](C)O)[C@@H](C)CC)[C@@H](C)O)C(=O)NCC(=O)N[C@@H](CCCCN)C(=O)N[C@H](C(=O)N[C@@H](CC(=O)O)C(=O)NCC(=O)N[C@H](C(=O)N[C@@H](CO)C(=O)N[C@@H](Cc1c[nH]cn1)C(=O)N[C@H](C(N)=O)C(C)C)[C@@H](C)O)C(C)C [PAR2-based] (H-TIQGTNRSSKGRSLIGKVDGTSHV-NH2) |  |  |  |
| five out of eight |  | two out of eight |  | 2 | − | +++ (ultrafast processing within 2 min) |  | CC[C@H](C)[C@H](NC(=O)[C@H](CO)NC(=O)[C@@H]1CCCN1C(=O)[C@@H](NC(=O)[C@H](CO)NC(=O)[C@H](CC(=O)O)NC(=O)[C@H](CC(=O)O)NC(=O)CNC(=O)CNC(=O)CNC(=O)[C@@H](NC(=O)[C@H](CO)NC(=O)CNC(=O)[C@H](CO)NC(=O)[C@H](CCC(=O)O)NC(=O)[C@H](CC(=O)O)NC(=O)[C@H](Cc1ccc(O)cc1)NC(=O)[C@@H](NC(=O)[C@H](CO)NC(=O)[C@@H]1CCCN1C(=O)[C@@H](NC(=O)[C@H](CCC(N)=O)NC(=O)[C@@H](NC(=O)CNC(=O)CN)[C@@H](C)O)[C@@H](C)O)C(C)C)[C@@H](C)O)[C@@H](C)O)C(=O)N[C@@H](CC(C)C)C(=O)N1CCC[C@H]1C(=O)N[C@@H](C)C(=O)N1CCC[C@H]1C(=O)N[C@@H](CCCNC(=N)N)C(=O)NCC(=O)N[C@@H](Cc1ccc(O)cc1)C(=O)N1CCC[C@H]1C(=O)NCC(=O)N[C@@H](CCC(N)=O)C(=O)N[C@H](C(=O)N[C@@H](CS)C(=O)N[C@@H](C)C(=O)N[C@@H](CC(N)=O)C(=O)N[C@@H](CC(=O)O)C(N)=O)C(C)C [PAR4-based] (H-GGTQTPSVYDESGSTGGGDDSTPSILPAPRGYPGQVCAND-NH2) | not in post-colitis samples |  |  |
|  |  |  | cleaved slowly | 2 | ++ (fast processing after 5 min) | +++ (ultrafast processing within 2 min) | 30 | CC[C@H](C)[C@H](NC(=O)[C@@H]1CCCN1C(=O)[C@H](CC(C)C)NC(=O)[C@@H](NC(=O)[C@@H]1CCCN1C(=O)[C@H](CCCCN)NC(=O)[C@H](C)NC(=O)[C@H](CC(C)C)NC(=O)[C@H](CC(N)=O)NC(=O)[C@H](CC(N)=O)NC(=O)[C@@H](NC(=O)[C@H](CC(=O)O)NC(=O)[C@H](CC(N)=O)NC(=O)[C@H](CCC(=O)O)NC(=O)[C@H](CCSC)NC(=O)CN)[C@@H](C)O)[C@@H](C)O)C(=O)N[C@@H](CCCCN)C(=O)N[C@H](C(=O)N[C@@H](Cc1ccccc1)C(=O)N[C@@H](CCCNC(=N)N)C(=O)NCC(=O)N[C@@H](C)C(=O)N1CCC[C@H]1C(=O)N1CCC[C@H]1C(=O)N[C@@H](CC(N)=O)C(=O)N[C@@H](CO)C(=O)N[C@@H](Cc1ccccc1)C(=O)N[C@@H](CCC(=O)O)C(N)=O)[C@@H](C)O [PAR3-based] (H-GMENDTNNLAKPTLPIKTFRGAPPNSFE-NH2) | trend towards an increase of the C-terminal fragment |  | No C- or N-terminal fragments could be detected |

| Structure (SMILES) | Number of colonic samples in which the TL-sequence unmasking cleavage was observed, acute colitis [1, 2] | Number of colonic samples in which the TL-sequence unmasking cleavage was observed, control ([1]; control lysates, n = 8, MALDI-TOF/TOF, PAR1-based after 30 min) | Number of colonic samples in which the TL-sequence unmasking cleavage was observed, post-colitis [1, 2] | Processing by colonic samples, in words (comparison of control, post-colitis and acute colitis) ([1]; MALDI-TOF/TOF) | Incubation time at which the first cleavage or decrease of the full-length peptide was observed, trypsin-2 (trypsin-2) [min] | TL disarming (D), Trypsin-2 (trypsin-2; 37 °C, 2, 5, 10 and 30 min) | TL unmasking (U), Trypsin-2 (trypsin-2; 37 °C, 2, 5, 10 and 30 min) | Incubation time after which processing was significant (decrease of full-length peptide or increase of fragment), acute colitis samples ([1]; rat colonic lysate, acute TNBS colitis, 5-30 min, stopped with 2% TFA, MALDI-TOF/TOF relative intensity vs standard peptide, n = 8 animals) [min] | Incubation time after which processing was significant (decrease of full-length peptide or increase of fragment), post-colitis samples [1, 3] | Efficiency of the first cleavage in the peptide, Trypsin-2 (trypsin-2; 37 °C, 2, 5, 10 and 30 min, stopped with 2% TFA) | Incubation time after which processing was significant (decrease of full-length peptide or increase of fragment), control samples ([1]; rat colonic lysate, control, 5-30 min, stopped with 2% TFA, MALDI-TOF/TOF relative intensity vs standard peptide, n = 8 animals) |
| --- | --- | --- | --- | --- | --- | --- | --- | --- | --- | --- | --- |
| CC[C@H](C)[C@H](NC(=O)[C@H](C)NC(=O)[C@H](CC(N)=O)NC(=O)[C@H](CCCCN)NC(=O)[C@H](Cc1ccccc1)NC(=O)[C@H](CC(C)C)NC(=O)[C@@H](NC(=O)[C@@H](NC(=O)[C@H](CC(C)C)NC(=O)[C@@H]1CCCN1C(=O)[C@@H](NC(=O)[C@H](CCC(N)=O)NC(=O)[C@H](CO)NC(=O)[C@H](CCCCN)NC(=O)[C@H](CCC(=O)O)NC(=O)[C@H](CO)NC(=O)[C@@H](NC(=O)[C@H](CCSC)NC(=O)[C@H](Cc1ccccc1)NC(=O)CNC(=O)CNC(=O)[C@@H](N)Cc1ccc(O)cc1)[C@@H](C)O)[C@@H](C)O)C(C)C)[C@@H](C)O)C(=O)N[C@H](C(=O)N[C@@H](CCCCN)C(=O)N[C@@H](CC(N)=O)C(=O)N[C@@H](C)C(=O)N[C@@H](Cc1ccc(O)cc1)C(=O)N[C@@H](CCCCN)C(=O)N[C@@H](CCCCN)C(=O)NCC(=O)N[C@@H](CCC(=O)O)C(=O)O)[C@@H](C)CC [β-endorphin] |  |  |  | cleaved more intensively by proteases in acute colitis samples | 2 |  |  |  |  | +++ (ultrafast processing within 2 min) |  |
